Literature values in paper PMC6650409, “Modeling the binding of diverse ligands within the Ah receptor ligand binding domain” (Scientific Reports, 2019).

Target: T1, L302A mutant AhR (Mus musculus, UniProt P30561, L302A)
T1 construct: made in house; host or cells: in vitro transcription/translation (rabbit reticulocyte lysate)
T1 sequence (P30561 10-848 L302A): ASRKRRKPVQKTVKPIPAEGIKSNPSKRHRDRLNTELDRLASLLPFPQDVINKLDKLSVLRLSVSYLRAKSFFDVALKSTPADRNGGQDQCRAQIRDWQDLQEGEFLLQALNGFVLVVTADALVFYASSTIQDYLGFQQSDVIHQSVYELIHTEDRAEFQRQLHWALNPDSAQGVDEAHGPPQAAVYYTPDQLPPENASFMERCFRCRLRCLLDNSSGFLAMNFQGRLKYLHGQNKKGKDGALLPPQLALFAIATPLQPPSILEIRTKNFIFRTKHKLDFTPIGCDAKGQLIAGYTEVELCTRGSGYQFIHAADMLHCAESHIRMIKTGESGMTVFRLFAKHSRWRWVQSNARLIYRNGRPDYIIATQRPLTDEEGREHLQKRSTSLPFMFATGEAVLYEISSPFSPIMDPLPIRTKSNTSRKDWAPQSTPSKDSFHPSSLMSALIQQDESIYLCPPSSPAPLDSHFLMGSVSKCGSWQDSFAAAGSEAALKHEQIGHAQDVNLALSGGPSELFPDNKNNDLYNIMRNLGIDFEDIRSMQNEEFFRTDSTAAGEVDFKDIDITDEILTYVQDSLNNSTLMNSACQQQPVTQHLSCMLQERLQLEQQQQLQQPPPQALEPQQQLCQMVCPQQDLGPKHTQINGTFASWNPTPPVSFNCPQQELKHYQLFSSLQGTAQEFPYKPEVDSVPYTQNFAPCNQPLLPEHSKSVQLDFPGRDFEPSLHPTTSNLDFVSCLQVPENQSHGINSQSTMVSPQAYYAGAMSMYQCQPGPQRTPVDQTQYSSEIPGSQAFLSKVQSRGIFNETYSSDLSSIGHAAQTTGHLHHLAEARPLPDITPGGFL
Design: method as in PMID 21981577
Settings: L302A mutation; cited from earlier work

Clc1cc2c(cc1Cl)Oc1cc(Cl)c(Cl)cc1O2 [TCDD, 2,3,7,8-tetrachlorodibenzo-p-dioxin]
TCDD binding activity: dramatically reduced
